Results on 2 compounds are retold here after patent US20040071777A1, “Solid dispersions of nitrate active principles” (priority 2000, published 2004).

Common to all, as to format: physicochemical
The nature of data set [1]: Dissolution rate of NCX 1022, paddle method, distilled water with 1% w/v Tween 80. The following applies: within one hour. The procedure: The dissolution rate of the active ingredient from the solid dispersion produced in Example 6 has been compared with the dissolution rate of the pure active ingredient, using the paddle method described in F.U.X. In detail, 40 mg of the solid dispersion or 5 mg of pure NCX 1022 have been placed in a thermostated container at 37° C.±0.5° C. in 500 ml of distilled water including 1% w/v of Tween 80 and kept under stirring at 100 rpm. The quantity of NCX 1022 dissolved has been spectrophotometrically determined in continuous at a wavelength of 240 nm.

A short description of data set [2]: Dissolution rate of NCX4016, paddle method (F.U.X.), 1% sodium lauryl sulphate solution. The following applies: 900 ml, 37° C., 150 rpm. The procedure: The dissolution rate of the solid dispersion produced in the example 3 has been compared with the dissolution rate of the pure NCX4016 in micronised form using the paddle method described in F.U.X., according to the following operating conditions T=37° C.±0.5° C., stirring rate: 150 rpm, dissolution means: 1% sodium lauryl sulphate solution, dissolution volume: 900 ml.
The quantity of NCX4016 released has been spectrophotometrically evaluated in continuous at a wavelength 232 nm.

Data set [3] can be described thus: Dissolution rate of NCX4016 under condition of supersaturation, paddle method, distilled water. The following applies: after 5 minutes, from solid dispersion 2. The procedure: Three samples of microspheres have been exactly weighed so as to have a content of nitroaspirine of 30 mg. This quantity corresponds to about 4 times the solubility in water of the active principle.
The dissolution rate of the active principle from the above mentioned 3 solid dispersions has been compared with the dissolution rate of the pure active principle in micronized form, with the paddle method, described in F.U.X. using the following conditions:
dissolution means: distilled water
stirring rate: 100 r.p.m.
The quantity of NCX 4016 released has been evaluated spectrophotometrically in continuous at a wavelength 232 nm.
The samples have been taken by means of a peristaltic pump at 5 minutes intervals and for the total time of one hour.

`C[C@]12CCC(=O)C=C1CC[C@@H]1[C@@H]2[C@@H](O)C[C@@]2(C)[C@H]1CC[C@]2(O)C(=O)COC(=O)c1ccc(CO[N+](=O)[O-])cc1` [NCX 1022, hydroxycortisone 21-[(4′-nitroxymethyl)benzoate]] gave a solubilisation in data set [1] of 4.3%.
Consider `CC(=O)Oc1ccccc1C(=O)Oc1cccc(CO[N+](=O)[O-])c1` [NCX4016 micronized, 3-(nitroxymethyl)phenyl Ester of 2-acetoxybenzoic Acid], for which the “percentage of active principle dissolved” value is 17.9% in data set [2] (5 minutes); 39.2% in data set [2] (10 minutes); 53.5% in data set [2] (15 minutes); 60.7% in data set [2] (20 minutes); 71.4% in data set [2] (25 minutes); 77% in data set [2] (30 minutes). The “percentage of active principle dissolved” value in data set [2] (35 minutes) was 80.9%; in data set [2] (40 minutes), 84.4%; in data set [2] (45 minutes), 87%; in data set [2] (50 minutes), 88.9%; in data set [2] (55 minutes) it was 90.6%; in data set [2] (60 minutes) it was 91.4%. The “quantity dissolved relative to the solubility of the active ingredient in the dissolution means” value in data set [3] was “about twice”.
